B1: PUFc-GADD45A: SEQ ID NO:106 (protein)
chain: MIDGGGGSDPKKKRKVDPKKKRKVDPKKKRKVGSTGSRNDGGGGSGGGGSGGGGSGRAGILPPKKKRKVSRGRSRLLEDFRNNRYPNLQLREIAGHIMEFSQDQHGSRFIQLKLERATPAERQLVFNEILQAAYQLMVDVFGNYVIQKFFEFGSLEQKLALAERIRGHVLSLALQMYGSRVIEKALEFIPSDQQNEMVRELDGHVLKCVKDQNGNHVVQKCIECVQPQSLQFIIDAFKGQVFALSTHPYGCRVIQRILEHCLPDQTLPILEELHQHTEQLVQDQYGSYVIEHVLEHGRPEDKSKIVAEIRGNVLVLSQHKFANNVVQKCVTHASRTERAVLIDEVCTMNDGPHSALYTMMKDQYANYVVQKMIDVAEPGQRKIVMHKIRPHIATLRKYTYGKHILAKLEKYYMKNGVDLGDPKKKRKVDPKKKRKVGGRGGGGSGGGGSGGGGSGPALTLEEFSAGEQKTERMDKVGDALEEVLSKALSQRTITVGVYEAAKLLNVDPDNVVLCLLAADEDDDRDVALQIHFTLIQAFCCENDINILRVSNPGRLAELLLLETDAGPAASEGAEQPPDLHCVLVTNPHSSQWKDPALSQLICFCRESRYMDQWVPVINLPERSRYPYDVPDYA
B2: TET1(CD)-PUFa: TET1 catalytic domain fused to N-terminus of PUFa; SEQ ID NO:54 (protein)
chain: MGPAELPTCSCLDRVIQKDKGPYYTHLGAGPSVAAVREIMENRYGQKGNAIRIEIVVYTGKEGKSSHGCPIAKWVLRRSSDEEKVLCLVRQRTGHHCPTAVMVVLIMVWDGIPLPMADRLYTELTENLKSYNGHPTDRRCTLNENRTCTCQGIDPETCGASFSFGCSWSMYFNGCKFGRSPSPRRFRIDPSSPLHEKNLEDNLQSLATRLAPIYKQYAPVAYQNQVEYENVARECRLGSKEGRPFSGVTACLDFCAHPHRDIHNMNNGSTVVCTLTREDNRSLGVIPQDEQLHVLPLYKLSDTDEFGSKEGMEAKIKSGAIEVLAPRRKKRTCFTQPVPRSGKKRAAMMTEVLAHKIRAVEKKPIPRIKRKNNSTTTNNSKPSSLPTLGSNTETVQPEVKSETEPHFILKSSDNTKTYSLMPSAPHPVKEASPGFSWSPKTASATPAPLKNDATASCGFSERSSTPHCTMPSGRLSGANAAAADGPGISQLGEVAPLPTLSAPVMEPLINSEPSTGVTEPLTPHQPNHQPSFLTSPQDLASSPMEEDEQHSEADEPPSDEPLSDDPLSPAEEKLPHIDEYWSDSEHIFLDANIGGVAIAPAHGSVLIECARRELHATTPVEHPNRNHPTRLSLVFYQHKNLNKPQHGFELNKIKFEAKEAKNKKMKASEQKDQAANEGPEQSSEVNELNQIPSHKALTLTHDNVVTVSPYALTHVAGPYNHWVIDGGGGSDPKKKRKVDPKKKRKVDPKKKRKVGSTGSRNDGGGGSGGGGSGGGGSGRAGILPPKKKRKVSRGRSRLLEDFRNNRYPNLQLREIAGHIMEFSQDQHGSRFIQLKLERATPAERQLVFNEILQAAYQLMVDVFGNYVIQKFFEFGSLEQKLALAERIRGHVLSLALQMYGSRVIEKALEFIPSDQQNEMVRELDGHVLKCVKDQNGNHVVQKCIECVQPQSLQFIIDAFKGQVFALSTHPYGCRVIQRILEHCLPDQTLPILEELHQHTEQLVQDQYGNYVIQHVLEHGRPEDKSKIVAEIRGNVLVLSQHKFASNVVEKCVTHASRTERAVLIDEVCTMNDGPHSALYTMMKDQYANYVVQKMIDVAEPGQRKIVMHKIRPHIATLRKYTYGKHILAKLEKYYMKNGVDLGDPKKKRKVDPKKKRKVGGRGGGGSGGGGSGGGGSGPA
B3: GADD45A-PUFc: SEQ ID NO:107 (protein)
chain: MTLEEFSAGEQKTERMDKVGDALEEVLSKALSQRTITVGVYEAAKLLNVDPDNVVLCLLAADEDDDRDVALQIHFTLIQAFCCENDINILRVSNPGRLAELLLLETDAGPAASEGAEQPPDLHCVLVTNPHSSQWKDPALSQLICFCRESRYMDQWVPVINLPERSRYPYDVPDYAIDGGGGSDPKKKRKVDPKKKRKVDPKKKRKVGSTGSRNDGGGGSGGGGSGGGGSGRAGILPPKKKRKVSRGRSRLLEDFRNNRYPNLQLREIAGHIMEFSQDQHGSRFIQLKLERATPAERQLVFNEILQAAYQLMVDVFGNYVIQKFFEFGSLEQKLALAERIRGHVLSLALQMYGSRVIEKALEFIPSDQQNEMVRELDGHVLKCVKDQNGNHVVQKCIECVQPQSLQFIIDAFKGQVFALSTHPYGCRVIQRILEHCLPDQTLPILEELHQHTEQLVQDQYGSYVIEHVLEHGRPEDKSKIVAEIRGNVLVLSQHKFANNVVQKCVTHASRTERAVLIDEVCTMNDGPHSALYTMMKDQYANYVVQKMIDVAEPGQRKIVMHKIRPHIATLRKYTYGKHILAKLEKYYMKNGVDLGDPKKKRKVDPKKKRKVGGRGGGGSGGGGSGGGGSGPA
B4: PUFa-GADD45A-TET1(CD): GADD45A between PUFa and TET1(CD); SEQ ID NO:105 (protein)
chain: MIDGGGGSDPKKKRKVDPKKKRKVDPKKKRKVGSTGSRNDGGGGSGGGGSGGGGSGRAGILPPKKKRKVSRGRSRLLEDFRNNRYPNLQLREIAGHIMEFSQDQHGSRFIQLKLERATPAERQLVFNEILQAAYQLMVDVFGNYVIQKFFEFGSLEQKLALAERIRGHVLSLALQMYGSRVIEKALEFIPSDQQNEMVRELDGHVLKCVKDQNGNHVVQKCIECVQPQSLQFIIDAFKGQVFALSTHPYGCRVIQRILEHCLPDQTLPILEELHQHTEQLVQDQYGNYVIQHVLEHGRPEDKSKIVAEIRGNVLVLSQHKFASNVVEKCVTHASRTERAVLIDEVCTMNDGPHSALYTMMKDQYANYVVQKMIDVAEPGQRKIVMHKIRPHIATLRKYTYGKHILAKLEKYYMKNGVDLGDPKKKRKVDPKKKRKVGGRGGGSGGGSGGGSGGGSGGGSGGGSLTLEEFSAGEQKTERMDKVGDALEEVLSKALSQRTITVGVYEAAKLLNVDPDNVVLCLLAADEDDDRDVALQIHFTLIQAFCCENDINILRVSNPGRLAELLLLETDAGPAASEGAEQPPDLHCVLVTNPHSSQWKDPALSQLICFCRESRYMDQWVPVINLPERSRGRGGGGSGGGGSGGGGSGPAELPTCSCLDRVIQKDKGPYYTHLGAGPSVAAVREIMENRYGQKGNAIRIEIVVYTGKEGKSSHGCPIAKWVLRRSSDEEKVLCLVRQRTGHHCPTAVMVVLIMVWDGIPLPMADRLYTELTENLKSYNGHPTDRRCTLNENRTCTCQGIDPETCGASFSFGCSWSMYFNGCKFGRSPSPRRFRIDPSSPLHEKNLEDNLQSLATRLAPIYKQYAPVAYQNQVEYENVARECRLGSKEGRPFSGVTACLDFCAHPHRDIHNMNNGSTVVCTLTREDNRSLGVIPQDEQLHVLPLYKLSDTDEFGSKEGMEAKIKSGAIEVLAPRRKKRTCFTQPVPRSGKKRAAMMTEVLAHKIRAVEKKPIPRIKRKNNSTTTNNSKPSSLPTLGSNTETVQPEVKSETEPHFILKSSDNTKTYSLMPSAPHPVKEASPGFSWSPKTASATPAPLKNDATASCGFSERSSTPHCTMPSGRLSGANAAAADGPGISQLGEVAPLPTLSAPVMEPLINSEPSTGVTEPLTPHQPNHQPSFLTSPQDLASSPMEEDEQHSEADEPPSDEPLSDDPLSPAEEKLPHIDEYWSDSEHIFLDANIGGVAIAPAHGSVLIECARRELHATTPVEHPNRNHPTRLSLVFYQHKNLNKPQHGFELNKIKFEAKEAKNKKMKASEQKDQAANEGPEQSSEVNELNQIPSHKALTLTHDNVVTVSPYALTHVAGPYNHWVID

Test system: hMLH1 expression (methylation-silenced hMLH1 promoter) in HEK293T cells
Assay: hMLH1 mRNA levels by TaqMan qRT-PCR in transfected HEK293T cells
Format: cell-based, human
Conditions: for hMLH1 activation, comparison in words (direct dCas9 fusions vs Casilio-ME): same combination of sgRNAs; for hMLH1 expression, fold over background (change in mRNA levels): sgRNAs 3+7, 60 hours post-transfection, GAPDH control; for stimulation of TET1(CD) mediated hMLH1 activation by GADD45A PUFc fusions: co-expressed with PUFa-TET1(CD), gRNAs-PBSac
Procedure: To test the system, HEK293T cells were transfected with Casilio-ME components including Ct or Nt-fusion TET1-effector and a combination of 3 or 2 sgRNAs. Relative levels of hMLH1 mRNA were determined in TaqMan assays by using RNA extracted from cells 60 hours post-transfection and GAPDH as endogenous control for normalization of qRT-PCR measurements.
Cell culture and transfection. HEK293T cells were cultivated in Dulbecco's modified Eagle's medium (DMEM)(Sigma) with 10% fetal bovine serum (FBS)(Lonza), 4% Glutamax (Gibco), 1% Sodium Pyruvate (Gibco) and penicillin-streptomycin (Gibco) in an incubator set to 37° C. and 5% CO2. When indicated cells were treated with 2.5 μM or 5 μM 5-Azacytidine (sigma) as indicated with a daily change of medium containing freshly diluted drug. Cells were seeded into 12-well plates at 150,000 cells per well the day before being transfected with 100 ng of dCas9 construct, 100 ng of modified sgRNA construct and 200 ng of PUF-fusion with Attractene transfection reagent according to manufacturer's instructions (Qiagen). In dCas9-direct fusion experiments, cells were transfected with 200 ng dCas9-fusion constructs and 200 ng of modified sgRNA constructs. Transfected cells were harvested 60 hours after transfection, or otherwise indicated, and cell pellets were used for extractions of RNA, genomic DNA and protein.
Quantitative RT-PCR analysis. Cells were harvested, washed with Dulbecco's phosphate-buffered saline (dPBS), centrifuged at 125×g for 5 min and then the flash-frozen pellets were stored at −80° C. RNA was extracted using RNeasy Plus Mini Kit according to the manufacturer's instructions (Qiagen). cDNA libraries were made using Applied Biosystems High Capacity RNA-to-cDNA kit with 200 ng to 1 μg of RNA. TaqMan gene expression assays (Applied Biosystems) were designed using GAPDH (Hs03929097, VIC) as endogenous control and hMLH1 (Hs00179866, FAM) as target. TaqMan Universal Master Mix II, with UNG (Applied Biosystems) was used for Quantitative PCR (qPCR), with 2 μl of diluted cDNA used for each reaction. Activation was analyzed with the Applied Biosystems ViiA7 instrument. Gene expression levels were calculated by “delta delta Ct” algorithm and normalized to control samples.
HEK293T cells were cultivated in Dulbecco's modified Eagle's medium (DMEM) (Sigma) with 10% fetal bovine serum (FBS) (Lonza), 4% Glutamax (Gibco), 1% Sodium Pyruvate (Gibco) and penicillin-streptomycin (Gibco) in an incubator set to 37° C. and 5% CO2. Cells were seeded into 12-well plates at 150,000 cells per well the day before being transfected with 100 ng of dCas9 construct, 100 ng of modified sgRNA construct and 200 ng of PUF-fusion with Attractene transfection reagent according to manufacturer's instructions (Qiagen). Transfected cells were harvested 3 days after transfection, or otherwise indicated, and cell pellets were used for RNA extractions.
Cells were harvested, washed with Dulbecco's phosphate-buffered saline (dPBS), centrifuged at 125×g for 5 min and then the flash-frozen pellets were stored at −80° C. RNA was extracted using RNeasy Plus Mini Kit according to the manufacturer's instructions (Qiagen). cDNA libraries were made using Applied Biosystems High Capacity RNA-to-cDNA kit with 200 ng to 2 μg of RNA. TaqMan gene expression assays (Applied Biosystems) were designed using GAPDH (Hs03929097, VIC) as endogenous control and hMLH1 (Hs00179866, FAM) as target. TaqMan Universal Master Mix II, with UNG (Applied Biosystems) was used for Quantitative PCR (qPCR), with 2 μl of diluted cDNA used for each reaction. Activation was analyzed with the Applied Biosystems ViiA7 instrument. Gene expression levels were calculated by “delta delta Ct” algorithm and normalized to control samples.

Molecule	hMLH1 activation, comparison in words (direct dCas9 fusions vs Casilio-ME) (HEK293T)	hMLH1 expression, fold over background (change in mRNA levels) (HEK293T) [fold]	stimulation of TET1(CD) mediated hMLH1 activation by GADD45A PUFc fusions	other results
TET1(CD)-dCas9: direct N-terminal fusion of TET1(CD) to dCas9; SEQ ID NO:52	much weaker activation than its respective C-terminal fusion	–	–	–
dCas9-TET1(CD): direct C-terminal fusion of TET1(CD) to dCas9; SEQ ID NO:53	relatively weak activation	19	–	hMLH1 activation relative to dCas9-p65HSF1 (HEK293T, same sgRNA combination): at best twice the activity obtained with transcription activator dCas9 fusion; hMLH1 activation as share of activation obtained using Casilio-ME (same sgRNAs combination, parallel experiment): about 14%
B1	–	–	significant stimulation of the TET1(CD) mediated hMLH1 activation	–
B2	–	≤ 20	–	–
B3	–	–	higher activity compared to PUFc-GADD45A fusions	–
B4	–	–	–	enhancement of hMLH1 expression relative to PUFa-TET1(CD) alone (GADD45A two-in-one effectors, HEK293T, TaqMan): 4 fold

From patent US20190218261A1, “TARGETED ENHANCED DNA DEMETHYLATION” (The Jackson Laboratory, priority 2016, published 2019)
